Source: patent publication US20220064141A1, “BENZOPYRIDONE HETEROCYCLIC COMPOUND AND USE THEREOF” (BrightGene Bio-Medical Technology Co., Ltd., priority 2019, published 2022)

Assays:
[1] = tested on: NCI-H358 human non-small cell lung cancer cell with KRAS G12C mutation; assay: Cell Titer-Glo cell viability, NCI-H358 cells (72 h); assay type: cell-based; conditions: Homo sapiens, NCI-H358, 72 h, numeric values
How it was run: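 NCI-H358 (KRAS G12C) cells in DMEM with 10% FBS, seeded and left overnight at 37 °C, then treated 72 h with compound at 30 μM to 0.01 nM final. Viability from ATP content with Cell Titer-Glo after 1-4 h incubation at 37 °C; […].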

[2] = tested on: HCT116 human colon cancer cells with high expression of KRAS G13D; assay: Cell Titer-Glo cell viability, HCT116 cells (72 h); assay type: cell-based; conditions: HCT-116
Source text: Effect Example 2: Pharmacodynamic Assay 2 (Determination of the efficacy of the compounds of the present disclosure on HCT116 human colon cancer cells with high expression of KRAS G13D and A549 human non-small cell lung cancer cells with high expression of KRAS G12S)
The following method was used to determine the effects of the compounds of the present disclosure on tumor cell proliferation.
For KRAS G13D subtype, HCT116 human colon cancer cell was used. For KRAS G12S subtype, A549 human non-small cell lung cancer cell was used. The efficacy of the compounds in inhibiting cancer cell viability was determined. HCT116 cells or A549 cells were cultured in a DMEM medium containing 10% fetal bovine serum, 100 U penicillin and […] streptomycin. The cells were cultured in an incubator with 5% CO2 at 37° C. Cancer cell viability was evaluated by determining the content of ATP with Cell Titer-Glo® kit (Luminescent Cell Viability Assay kit, please refer to the manufacturer's instructions for use) and evaluating the inhibition of cell growth.
The experimental method was proceeded in accordance with the steps in the instructions for the kit, and was described briefly as follows. The test compounds were first dissolved in DMSO to prepare stock solutions, and then the stock solutions were subjected to gradient dilution with the culture media of the corresponding cells, thereby preparing test samples. The final concentrations of the compounds were in the range of 30 μM to 0.01 nM. Tumor cells in logarithmic growth phase were seeded into a 96-well cell culture plate at an appropriate density. After the cell culture plate was left overnight in an incubator with 5% CO2 at 37° C., the test compound samples were added thereto and then the cells were further cultured for 72 hours. After the incubation was complete, an appropriate volume of Cell Titer-Glo® reagent was added into each well, and the cells were incubated at 37° C. for 1 to 4 hours. Then, the […] was read on a microplate reader. The percentage inhibition rates of the compounds at each concentration point were calculated by comparing the absorbance values of the sample wells with that of the control group (0.3% DMSO), and then non-linear regression analysis of the concentration of the compound vs inhibition rate was performed by using GraphPad Prism 5 software, thereby obtaining IC50 values indicating the inhibitory effects of the compounds on cell proliferation.

Compound: C=CC(=O)N1CCN(c2c(C#N)c(=O)n(-c3ccccc3C(C)C)c3cc(-c4c(C)ccc5[nH]ncc45)c(Cl)cc23)[C@@H](C)C1 (single isomer, unassigned) [Compound I-2-2]
- IC50 [1]: 50 nM
- IC50 [2]: > 3000 nM
